Consider 7 compounds from PubChem BioAssay (NCI).

Common to all, as to experiment: NCI-60 cell line screen, 48 h
The subject of experiment [1] is IGROV1 ovarian.
Experiment [2] has as its system HT29 colon.
Experiment [3] relates to SK-MEL-5 melanoma.
The test system of experiment [4] is 786-0 renal.
In experiment [5] the test system is MALME-3M melanoma.
The subject of experiment [6] is A549 NSCLC.
Experiment [7] relates to SN12C renal.
The subject of experiment [8] is MCF7 breast.
The subject of experiment [9] is TK-10 renal.
For experiment [10], the system named is PC-3 prostate.

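Cells were grown in 96-well plates and exposed to each compound for 48 hours at five concentrations; endpoints were interpolated linearly between bracketing concentrations, or set to the highest concentration if not reached. GI50 marks 50% less growth. TGI: concentration producing complete growth inhibition.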

Turning to `C[C@]12CC[C@@H]3c4ccc(O)cc4CC[C@H]3[C@@H]1CC[C@@H]2NS(=O)(=O)c1cccc(Cl)c1`, the GI50 in [1] is 4.23 µM; in experiment [2], 2.47 µM; in experiment [3], 1.72 µM; in [4], 2.47 µM; in experiment [5], 2.36 µM; in [6], 3.22 µM. Further, the GI50 in [7] is 1.8 µM; in [8], 2.92 µM; in experiment [9], 3.46 µM; in experiment [10] it was 2.98 µM. Moreover, the TGI in [1] amounted to 16.8 µM; in experiment [2], 6.06 µM; in experiment [3], 3.22 µM; in experiment [4], 6.13 µM; in experiment [5], 6.75 µM; in [6], 12.7 µM. The TGI in experiment [7] was 3.8 µM; in [8], 7.46 µM; in experiment [9], 11.2 µM; in experiment [10], 11.9 µM.

Turning to `C=C(C)[C@@H]1CC[C@]2(COCCCNCCCN)CC[C@]3(C)[C@H](CC[C@@H]4[C@@]5(C)CC[C@H](OCCCN)C(C)(C)[C@@H]5CC[C@]43C)[C@@H]12`, the GI50 in [1] was 0.93 µM; in [2] it was 0.813 µM; in experiment [3], 1.72 µM; in experiment [4], 0.825 µM; in experiment [5], 0.801 µM; in experiment [6], 0.909 µM. In addition, the GI50 is 0.867 µM in experiment [7], 0.879 µM in [8], 0.952 µM in [9] and 0.874 µM in experiment [10]. Also, the TGI in [1] was found to be 1.72 µM; in experiment [2], 1.53 µM; in [3], 5.81 µM; in experiment [4] it was 1.5 µM; in [5], 1.53 µM; in experiment [6] it was 1.71 µM. In addition, the TGI was determined as 1.62 µM in [7], 1.7 µM in [8], 1.94 µM in experiment [9] and 1.72 µM in experiment [10].

In the case of `O=C1NCN(c2ccccc2)C12CCN(CCCC(c1ccc(F)cc1)c1ccc(F)cc1)CC2`, the GI50 in experiment [1] was 2.36 µM; in experiment [2], 1.51 µM; in experiment [3] it was 1.6 µM; in [4], 1.67 µM; in experiment [5] it was 1.66 µM; in [6], 2.56 µM. For the same compound, the GI50 was 2.45 µM in experiment [7], 1.88 µM in experiment [8], 1.79 µM in [9] and 2.49 µM in experiment [10]. For the same compound, the TGI in experiment [1] was 9.89 µM; in experiment [2], 3.22 µM; in experiment [3], 2.97 µM; in experiment [4] it was 3.52 µM; in [5] it was 3.46 µM; in [6] it was 9.68 µM. Further, the TGI in experiment [7] was found to be 8.36 µM; in experiment [8], 5.65 µM; in experiment [9] it was 4.11 µM; in [10], 10.7 µM.

Take `Cc1cc2c(cc1C)[n+](=O)c(C(=O)/C=C/c1ccc3c(c1)OCO3)c(C)n2[O-]`: the TGI in experiment [1] is more than 81.5 µM; in experiment [2] it was more than 100 µM; in [3], more than 100 µM; in [4], more than 100 µM; in experiment [5] it was more than 100 µM; in experiment [6], more than 100 µM. Besides, the TGI was more than 100 µM in experiment [7], more than 100 µM in experiment [8], 53.3 µM in [9] and more than 100 µM in [10].

On to `COc1cccc(-n2ncc3c(N/N=C/c4ccc(C)cc4)ncnc32)c1`, for which the GI50 is more than 25 µM in experiment [1]; 1.89 µM in [2]; more than 25 µM in [3]; more than 25 µM in experiment [4]; 24.1 µM in experiment [5]; more than 25 µM in experiment [6]. Further, the GI50 in [7] was more than 25 µM; in experiment [8], 7.2 µM; in experiment [9], more than 25 µM; in [10], more than 25 µM. Further, the TGI in experiment [1], in [2], in experiment [3], in experiment [4], in experiment [5] and in experiment [6] was more than 25 µM each time. Also, the TGI in [7], in [8], in experiment [9] and in [10] was more than 25 µM in each case.

Consider `COc1cc2c3c(n(CCCCNC(=O)OC(C)(C)C)c(=O)c2cc1OC)-c1cc2c(cc1C3=O)OCO2`, for which the GI50 in [1] is more than 100 µM; in [2] it was more than 100 µM; in experiment [3], more than 100 µM; in experiment [4] it was 25 µM; in experiment [5], more than 100 µM; in experiment [6], more than 100 µM. The GI50 in experiment [7] is 78 µM; in experiment [8], 5.15 µM; in [9], more than 100 µM; in [10] it was more than 100 µM. The TGI in [1], in experiment [2], in experiment [3], in experiment [4], in experiment [5] and in [6] was more than 100 µM each time. For the same compound, the TGI in experiment [7], in experiment [8], in [9] and in [10] was more than 100 µM throughout.

Regarding `CC/C=C\C[C@H](O)C/C=C1/C(=O)C=C[C@@H]1C/C=C\CCCC(=O)OC(C)C`, the GI50 in [1] was 2.43 µM; in experiment [2], 1.65 µM; in experiment [3], 1.17 µM; in experiment [4] it was 1.9 µM; in experiment [5], 1.64 µM; in experiment [6], 2.48 µM. Further, the GI50 was 2.42 µM in [7], 0.372 µM in [8], 3.54 µM in [9] and 1.58 µM in experiment [10]. Also, the TGI is 7.75 µM in [1]; 3.21 µM in experiment [2]; 2.51 µM in experiment [3]; 3.72 µM in experiment [4]; 3.75 µM in [5]; 5.88 µM in experiment [6]. Further, the TGI was determined as 6.35 µM in [7], 2.22 µM in experiment [8], 9.31 µM in experiment [9] and 3.49 µM in [10].
